System: Bin1b
Experiment: In vivo antisense oligonucleotide treatment, injection into mid-caput epididymis
Design: species or system rat
Method: Sperm motility analysis. For the motility analysis, we used an HTM-IVOS system (version 10.8, Hamilton-Thorn Research) with the following settings: objective, ×4; minimum cell size, six pixels; minimum contrast, 65; minimum static contrast, 30; low VAP cut-off, 30.0; low VSL cut-off, 20.0; threshold straightness, 50%; static head size, 0.29-10.0; static head intensity, 0.29-1.11; magnification, 0.82. Sixty frames were acquired at a frame rate of 60 Hz. At least 200 tracks were measured for each specimen at 37° C. We recorded at least 30 points for each tract. The playback function of the system was used to check its accuracy.
Flow cytometry analysis. Rat sperm were stained with Bin1b polyclonal antibody at a final concentration of 1:200. In control samples, the antibody was replaced by preimmune serum at the same concentration. After incubation at 4° C. overnight, the sperm were washed twice with PBS containing 4 mg ml^−1 bovine serum albumin and incubated for 45 min at 22° C. with the secondary antibody, fluorescein isothiocyanate (FITC)-conjugated goat antibody against rabbit IgG (Zymed Laboratories) at a dilution of 1:50. After three washes, the sperm were analysed on a flow cytometer (Beckman Coulter). We analyzed 10,000 individual sperm per sample for FITC fluorescence emissions. A negative control of sperm stained by normal rabbit IgG was used to set the threshold for specific Bin1b staining. The percentage of sperm specifically stained for Bin1b was obtained by subtracting background fluorescence.
In vivo antisense oligonucleotide treatment. The skin covering the testis of a male Sprague-Dawley rat (aged >3 months) was cut open under anaesthesia and 30 μl of Bin1b antisense oligonucleotide (5′-[…]-3′; SEQ ID NO:3) or control sense oligonucleotide (5′-[…]-3′; SEQ ID NO:4) solution (20 μg ml^−) was injected into the proximal side of the mid-caput epididymis. The sperm were collected for assessment 48 h after injection. The use of animals in this project was authorized by the Animal Research Ethics Committee of The Chinese University of Hong Kong.

[1] = versus sense oligonucleotide control, 48 h after injection

Substance: 5′-AGAGTAACAAAACCTTCATG-3′ (listed as DNA, chemistry not given here) [antisense Bin1b oligonucleotide]
- expression of Bin1b messenger RNA in the caput epididymis (semiquantitative RT-PCR) (20 μg ml^−1, versus sense control): significantly suppressed
- Bin1b binding to sperm collected in the distal caput region (flow cytometry) (versus sense control): considerable reduction
- motility of sperm from the distal caput epididymis [1]: reduced sperm motility
- progressive movement of sperm from the distal caput epididymis [1]: significantly lower
- motility of sperm from the distal caput epididymis (versus sense oligonucleotide control, 48 h after injection, listed as Bin1b antisense oligonucleotide): significantly lower

Reference: US7494780B2, “Epididymis-specific defensin for evaluating and regulating male fertility” (The Chinese University of Hong Kong, priority 2004, dated 2009)
